The nature of the series: Solubility of Tadalafil in 2-pyrrolidone. The format is physicochemical. The conditions noted are these: compared with ethanol as solvent. The text has this:
Pyrroplus Manufacturing Process” as described above, overcomes several problems associated with the low solubility of Tadalafil. […] Conversely, using ethanol as solvent requires either increased amount of solvent or small quantity of Tadalafil, which both incommode the preparation of a pharmaceutical composition.

As for `CN1CC(=O)N2[C@H](c3ccc4c(c3)OCO4)c3[nH]c4ccccc4c3C[C@@H]2C1=O` [Tadalafil], the “solubility when dissolved in 2-pyrrolidone” value was “its solubility increases and reaches high values”.

The values above are taken from patent publication US9561186B2, “Method for improving the bioavailability of low aqueous solubility drugs” (PHARMATHEN S.A., priority 2012, dated 2017).
